Measurements as given in US20080004290A1, “Anti-Cancer Agents” (THE UNIVERSITY OF QUEENSLAND, priority 2003, published 2008).
Where two headings read alike, the source gives them in different places.

Assays:
Assay type in all cases: cell-based, human
[1] = test system: NFF, neonatal foreskin fibroblasts; assay: Cell survival assay (clonogenic survival, SRB), normal cells; conditions: Homo sapiens, Fibroblast
Outline: (§1)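 Cells (5×10^3/well, RPMI 1640 with 10% FCS) treated 24 h with compound at 0.01-10 μg/mL, then washed and grown 72 h drug-free at 37 °C, 5% CO2. Survival read by SRB staining after methylated-spirit fixation, absorbance 564 nm.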

MM96L melanoma cells = assay: Cell survival assay (clonogenic survival, SRB); conditions: for IC50: Homo sapiens, MM96L
Outline: as §1

DO4 melanoma cells = assay: Cell survival assay (SRB)
Outline: (§2)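 Following overnight adherence, cells are treated with test compounds for 24 hours, then washed free of drug and cultured 72 hours longer. Survival is quantified by sulforhodamine B protein staining read at 564 nm.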

SkMel28 melanoma cells = assay: Cell survival assay (SRB)
Outline: as §2

A2058 cells = assay: Cell survival assay (SRB)
Outline: (§3)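 Read-out: sulforhodamine B protein stain, absorbance at 564 nm. Compound exposure lasted 24 h, followed by washout and 72 h recovery in fresh medium. Seeding density 5×10^3 cells/well; RPMI 1640 plus 10% FCS, 37° C.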

AF-6 cells = assay: Cell survival assay (SRB)
Outline: as §3

AO7 RM cells = assay: Cell survival assay (SRB)
Outline: as §3

D11 melanoma cells = assay: Cell survival assay (SRB)
Outline: as §3

D14 melanoma cells = assay: Cell survival assay (SRB)
Outline: as §3

D17 melanoma cells = assay: Cell survival assay (SRB)
Outline: as §3

HeLa cells = assay: Cell survival assay (SRB)
Outline: as §3

LSP M2 cells = assay: Cell survival assay (SRB)
Outline: as §3

MM229 melanoma cells = assay: Cell survival assay (SRB)
Outline: as §3

MM329 melanoma cells = assay: Cell survival assay (SRB)
Outline: as §3

MM470 melanoma cells = assay: Cell survival assay (SRB)
Outline: as §3

MM604 melanoma cells = assay: Cell survival assay (SRB)
Outline: as §3

Mel FH melanoma cells = assay: Cell survival assay (SRB)
Outline: as §3

Mel RM melanoma cells = assay: Cell survival assay (SRB)
Outline: as §3

[2] = Table 11, IC50 (NFF)/IC50(cancer cell line)
[3] = Homo sapiens, Table 11, antiproliferative potency

## CN(C)c1ccc(C(=O)N[C@@H](CCCCCC(=O)NO)C(=O)NCc2ccccc2)cc1 (racemic) [Example 124]
[1]; NFF normal fibroblasts, 24 h with compound, further 72 h growth, SRB, read-out: IC50 (uM) NFF
  IC50: 0.87 ± 0.07 µM
[1]; Table 11, antiproliferative potency, read-out: IC50 (μM) NFF
  IC50: 0.87 ± 0.07 µM
MM96L melanoma cells; MM96L melanoma, 24 h with compound, further 72 h growth, SRB, read-out: IC50 (uM) MM96L
  IC50: 0.13 ± 0.02 µM
MM96L melanoma cells; Table 11, antiproliferative potency, read-out: IC50 (μM) MM96L
  IC50: 0.13 ± 0.02 µM
MM96L melanoma cells; most preferred compounds, exemplary examples, read-out: potency of IC50 against the MM96 melanoma cells
  IC50: ≤ 0.5 µM
MM96L melanoma cells; NFF vs MM96L
  SI (Selectivity Index = IC50 (NFF)/IC50 (MM96L)): 6.7
MM96L melanoma cells; [2]
  Selectivity MM96L: 6.7
DO4 melanoma cells; Homo sapiens, DO4, Table 11, antiproliferative potency, read-out: IC50 (μM) DO4
  IC50: 0.12 ± 0.03 µM
DO4 melanoma cells; [2]
  Selectivity DO4: 7
SkMel28 melanoma cells; Homo sapiens, SK-MEL-28, Table 11, antiproliferative potency, read-out: IC50 (μM) SK Mel 28
  IC50: 0.06 ± 0.04 µM
SkMel28 melanoma cells; [2]
  Selectivity SK Mel 28: 15
A2058 cells; Homo sapiens, A2058, Table 11, antiproliferative potency
  IC50: 0.1 ± 0.02 µM
A2058 cells; [2]
  Selectivity A2058: 9
AF-6 cells; [3]
  IC50: 0.3 ± 0.03 µM
AF-6 cells; [2]
  Selectivity AF-6: 3
AO7 RM cells; [3]
  IC50: 0.18 ± 0.07 µM
AO7 RM cells; [2]
  Selectivity AO7 RM: 5
D11 melanoma cells; [3]
  IC50: 0.3 ± 0.2 µM
D11 melanoma cells; [2]
  Selectivity D11: 3
D14 melanoma cells; [3]
  IC50: 0.26 ± 0.08 µM
D14 melanoma cells; [2]
  Selectivity D14: 3
D17 melanoma cells; Homo sapiens, D17, Table 11, antiproliferative potency
  IC50: 0.06 ± 0.02 µM
D17 melanoma cells; [2]
  Selectivity D17: 15
HeLa cells; [3]
  IC50: 0.09 ± 0.01 µM
HeLa cells; [2]
  Selectivity HeLa: 10
LSP M2 cells; [3]
  IC50: 0.45 ± 0.05 µM
LSP M2 cells; [2]
  Selectivity LSP M2: 2
MM229 melanoma cells; [3]
  IC50: 0.6 ± 0.08 µM
MM229 melanoma cells; [2]
  Selectivity MM229: 1.5
MM329 melanoma cells; [3]
  IC50: 0.06 ± 0.04 µM
MM329 melanoma cells; [2]
  Selectivity MM329: 15
MM470 melanoma cells; [3]
  IC50: 0.09 ± 0.07 µM
MM470 melanoma cells; [2]
  Selectivity MM470: 10
MM604 melanoma cells; [3]
  IC50: 0.01 ± 0.01 µM
MM604 melanoma cells; [2]
  Selectivity MM604: 87
Mel FH melanoma cells; [3]
  IC50: 0.08 ± 0.04 µM
Mel FH melanoma cells; [2]
  Selectivity Mel FH: 11
Mel RM melanoma cells; [3]
  IC50: 0.95 ± 0.07 µM
Mel RM melanoma cells; [2]
  Selectivity Mel RM: 0.9
